# Measured values published in patent publication US10227344B2, “CK2 inhibitors, compositions and methods thereof” (Polaris Pharmaceuticals, Inc., priority 2016, dated 2019).
# Structures can show the parent of a compound that is named as a salt.
# Assays:
# [1] = molecular target: purified CK2α enzyme (Homo sapiens, UniProt P68400); assay: CK2 Protein Kinase Inhibition Assay (coupled PK/LDH assay); format: biochemical; settings: CK2 enzyme 25 nM, 100 μM ATP, 37° C., Morrison equation
# Description: A coupled PK (pyruvate kinase)/LDH (lactate dehydrogenase) assay was used to measure compounds' ability to inhibit purified CK2α enzyme.
# The ADP product of kinase CK2a is the cofactor for PK. Phospho(enol)pyruvate (PEP) PEP is metabolized by pyruvate kinase to yield pyruvate, which is the substrate for LDH.
# Serially diluted compounds were pre-incubated for 10 min at 37° C. with and 1.5 mM […] peptide substrate, 6 U/ml PK and 10 U/ml LDH (purchased from Sigma-Aldrich), 100 μM ATP, 1.2 mM NADH, 4 mM PEP in the reaction buffer (50 mM Tris (pH 8.25), 0.1 M NaCl, 10 mM magnesium acetate). The reaction was initiated by the addition of an equal volume of purified CK2 enzyme (final concentration 25 nM) diluted in the reaction buffer. Absorbance at 340 nm was measured overtime (for 30 min) at 37° C.; as NADH was converted to NAD+ the absorbance decreases. Absorbance decrease rate (per min) was plotted against the compound concentration and Ki is determined by GraphPad Prism using Morrison equation. All data points were performed in triplicate and each compound was tested in at least two separate experiments.
# To this end, K, values of less than 2.5 nM are labelled as “+++”, from 2.5 nM to 10 nM are labelled as “++”, and greater than 10 nM are labelled as “+”.
# Chain of purified CK2α enzyme (P68400 whole entry): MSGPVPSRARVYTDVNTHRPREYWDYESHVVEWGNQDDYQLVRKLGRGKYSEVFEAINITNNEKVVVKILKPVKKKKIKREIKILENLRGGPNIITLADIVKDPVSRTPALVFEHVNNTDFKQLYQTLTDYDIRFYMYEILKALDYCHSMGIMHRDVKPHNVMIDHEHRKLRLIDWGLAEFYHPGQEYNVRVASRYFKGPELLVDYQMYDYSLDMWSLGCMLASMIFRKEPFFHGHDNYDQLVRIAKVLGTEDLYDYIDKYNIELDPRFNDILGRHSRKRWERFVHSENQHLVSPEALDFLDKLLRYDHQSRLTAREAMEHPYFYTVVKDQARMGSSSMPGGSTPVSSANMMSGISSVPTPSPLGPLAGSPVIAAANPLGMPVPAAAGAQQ
smiles,measurement,setting,value
"CN(CCN)c1ccc(Nc2cc(NC3CC3)c3ncc(C#N)n3n2)cc1CS(C)(=O)=O (as salt: trifluoroacetic acid salt) [Example 48, 6-((4-((2-aminoethyl)(methyl)amino)-3-((methylsulfonyl)methyl)phenyl)amino)-8-(cyclopropylamino)imidazo[1,2-b]pyridazine-3-carbonitrile mono trifluoroacetic acid salt]",melting point,,121 to 124 °C
"CN(CCN)c1ccc(Nc2nc(NC3CC3)c3ncc(C#N)n3n2)cc1CS(C)(=O)=O (as salt: trifluoroacetic acid salt) [Example 50, 2-((4-((2-aminoethyl)(methyl)amino)-3-((methylsulfonyl)methyl)phenyl)amino)-4-(cyclopropylamino)imidazo[2,1-f][1,2,4]triazine-7-carbonitrile mono trifluoroacetic acid salt]",melting point,,113 to 117 °C
"CS(=O)(=O)Cc1cc(Nc2cc(NC3CC3)n3ncc(C#N)c3n2)ccc1C1(CN)CC1 [Example 39, 5-((4-(1-(Aminomethyl)cyclopropyl)-3-((methylsulfonyl)methyl)phenyl)amino)-7-(cyclopropylamino)pyrazolo[1,5-a]pyrimidine-3-carbonitrile mono trifluoroacetic acid salt]",Ki,[1],< 2.5 nM
"CS(=O)(=O)Cc1cc(Nc2cc(NC3CC3)n3ncc(C#N)c3n2)ccc1N1CC(N)C1 [Example 41, 5-((4-(3-Aminoazetidin-1-yl)-3-((methylsulfonyl)methyl)phenyl)amino)-7-(cyclopropylamino)pyrazolo[1,5-a]pyrimidine-3-carbonitrile]",Ki,[1],2.5 to 10 nM
"CS(=O)(=O)Cc1cc(Nc2cc(NC3CC3)n3ncc(C#N)c3n2)ccc1N1CC(CN)C1 [Example 43, 5-((4-(3-(Aminomethyl)azetidin-1-yl)-3-((methylsulfonyl)methyl)phenyl)amino)-7-(cyclopropylamino)pyrazolo[1,5-a]pyrimidine-3-carbonitrile]",Ki,[1],< 2.5 nM
"CN(c1ccc(Nc2cc(NC3CC3)n3ncc(C#N)c3n2)cc1CS(C)(=O)=O)C1CNC1 [Example 45, 5-((4-(Azetidin-3-yl(methyl)amino)-3-((methylsulfonyl)methyl)phenyl)amino)-7-(cyclopropylamino)pyrazolo[1,5-a]pyrimidine-3-carbonitrile]",Ki,[1],2.5 to 10 nM
"CN(CCN)c1ccc(Nc2cc(NC3CC3)c3ncc(C#N)n3n2)cc1CS(C)(=O)=O [Example 48, 6-((4-((2-aminoethyl)(methyl)amino)-3-((methylsulfonyl)methyl)phenyl)amino)-8-(cyclopropylamino)imidazo[1,2-b]pyridazine-3-carbonitrile mono trifluoroacetic acid salt]",Ki,[1],2.5 to 10 nM
"CN(CCN)c1ccc(Nc2nc(NC3CC3)c3ncc(C#N)n3n2)cc1CS(C)(=O)=O [Example 50, 2-((4-((2-aminoethyl)(methyl)amino)-3-((methylsulfonyl)methyl)phenyl)amino)-4-(cyclopropylamino)imidazo[2,1-f][1,2,4]triazine-7-carbonitrile mono trifluoroacetic acid salt]",Ki,[1],2.5 to 10 nM
"CN(CCN)c1ccc(Nc2nc(NC3CC3)n3ncc(C#N)c3n2)cc1CS(C)(=O)=O [Example 52, 2-((4-((2-aminoethyl)(methyl)amino)-3-((methylsulfonyl)methyl)phenyl)amino)-4-(cyclopropylamino)pyrazolo[1,5-a][1,3,5]triazine-8-carbonitrile mono trifluoroacetic acid salt]",Ki,[1],2.5 to 10 nM
"CN(CC1(N)CC1)c1ccc(Nc2cc(NC3CC3)n3ncc(C#N)c3n2)cc1CS(C)(=O)=O [Example 66, 5-((4-(((1-aminocyclopropyl)methyl)(methyl)amino)-3-((methylsulfonyl)methyl)phenyl)amino)-7-(cyclopropylamino)pyrazolo[1,5-a]pyrimidine-3-carbonitrile mono trifluoroacetic acid salt]",Ki,[1],< 2.5 nM
